# According to patent publication US6911475B1, “Use of nicotine or its derivatives in a drug for treating neurological disease, in particular Parkinson's disease” (Assistance Publique-Hopitaux de Paris, priority 1999, dated 2005):
# Read-outs that look alike come from different tables or passages of the source.
# Key:
# Parkinson's disease [1] = test system: Parkinson's disease
# Experimental: Clinical evaluation of the effect of the drug of the invention and of the treatment method was carried out using conventional UPDRS I, II and III neurological tests. These tests enabled both neuro-psychological and physical effects to be measured.
# The UPDRS I test measures, on a scale of 0 to 4, mentation, behaviour and mood of the patient, taking into account the criteria of intellectual impairment, thought disorder, depression and motivation/initiative.
# The UPDRS II test measures a series of sensory or motor physical tests, also on a scale of 0 to 4.
# The UPDRS III test measures the motor activity of the patient, again on a scale of 0 to 4.
# Zero indicates a normal state and four indicates maximum perturbation.
# Clinical evaluation was based on the L-DOPA test and was carried out as follows:
# The UPDRS test used is described below.
# It consisted of halting the L-DOPA therapy to a zero dose 12 to 24 hours before the test.
# The next day, every half hour, the condition and the clinical changes in the patient was measured during stoppage (“off” period, no L-DOPA) then the clinical changes during resumption (“on” period with L-DOPA). The time was measured using a chronometer.
# This test was carried out with UPDRS measurements as described above: • motor UPDRS (Unified Parkinson's Disease Rating Scale); • UPDRS I (mental state of patient); • UPDRS II (daily life, on-off); ADL (activities of daily living); • Self-evaluation test (test carried out by the patient, verification and confirmation by physician of fluctuations in on-off periods during the day).
# Parkinson's disease [2] = test system: Parkinson's disease; remark: listed apart in the source
# Experimental: (§1) The physical symptoms studied were: tremor, axial rigidity, gait and speech. The neuro-psychological symptoms were memory and sexual activity.
# (§2) Over a period of six months, nicotine patches were administered to the patient, firstly using increasing doses over the first three months to reach a dose of 102 mg per day and then by combining two types of patch, namely a patch in the form of a slow release patch (patch P) and rapid release patches (patch R). Each patch P contained 21 mg of nicotine and each patch R contained 15 mg of nicotine.
# Parkinson's disease [3] = test system: Parkinson's disease; remark: listed apart in the source
# Experimental: as §1, §2
# Overall, the daily dose was 21 mg the first month and stabilized at 102 mg from the fourth month, divided into 42 mg under slow release and 60 mg under rapid release.
# Concomitantly, L-DOPA was administered in a decreasing dose with time; in contrast, the bromocriptine dose was unchanged and remained at 30 mg per day over the entire treatment, as shown in Table II below.
# [4] = Re-administer nicotine at 102 mg/kg/d, after a period without nicotine
smiles,measurement,setting,value
CN1CCCC1c1cccnc1 (centres unmarked) [nicotine],UPDRS I (mental state),"Parkinson's disease [1]; With nicotine treatment (6 months later), day 0 without nicotine: 10",0
same,"UPDRS II off (daily activity, ADL)","Parkinson's disease [1]; With nicotine treatment (6 months later), off = no L-DOPA, day 0 without nicotine: 22",10
same,"UPDRS II on (daily activity, ADL)","Parkinson's disease [1]; With nicotine treatment (6 months later), on = with L-DOPA, day 0 without nicotine: 13",6
same,"UPDRS score for the ""off"" periods (FIG. 2)","Parkinson's disease [1]; no L-DOPA, 30 mg bromocriptine, over nicotine treatment, except in the seventh month (nicotine interrupted)",reduction in the score
same,"UPDRS measurements in the ""on"" periods (FIG. 2)","Parkinson's disease [1]; with L-DOPA (250 mg first test, 187.50 mg after six months), 30 mg bromocriptine, over nicotine treatment",constant decrease
same,Sexual problems and urinary dysfunction,"Parkinson's disease [2]; after four months of treatment, problems present for two years",completely re-established functions
same,Depressive episodes,Parkinson's disease [2]; under nicotine treatment,reduced
same,Memory disorders,Parkinson's disease [2]; under nicotine treatment,reduced
same,Neuro-psychological manifestations of Parkinson's disease,Parkinson's disease [2]; within six months from commencing treatment,disappeared completely
same,Axial rigidity,Parkinson's disease [3]; [4],0
same,Gait,Parkinson's disease [3]; [4],0
same,Speech,Parkinson's disease [3]; [4],0
same,Tremor,Parkinson's disease [3]; [4],1
same,Axial rigidity,Parkinson's disease [3]; With nicotine treatment,0
same,Gait,Parkinson's disease [3]; With nicotine treatment,0
same,Speech,Parkinson's disease [3]; With nicotine treatment,0
same,Tremor,"Parkinson's disease [3]; With nicotine treatment, patient, concomitant L-DOPA and 30 mg/day bromocriptine, 0 = normal, 4 = maximum perturbation",1
same,Axial rigidity (in words),"Parkinson's disease [3]; nicotine treatment, Table III",completely abolished
same,Gait and speech (in words),"Parkinson's disease [3]; nicotine treatment, Table III",normalised
same,Symptomatic effect of stopping administration of nicotine,Parkinson's disease [3]; stopping nicotine in the eighth month,no symptomatic effect
